Measurements reported in US4542123A (Massachusetts Institute of Technology, priority 1982, dated 1985).

What was measured:
[1] = Plasma insulin after glucose ingestion, radioimmunoassay (Example I); type: in vivo, human
Protocol: (§1) Six healthy, non-obese, fasting subjects each received, on different days 0, 6, 12.5, 25 or 50 g of glucose (Glucola) in a total volume of 100 ml.
(§2) Following a protocol approved by the Massachusetts Institute of Technology Committee on the Use of Humans as Experimental Subjects, 6 healthy volunteer outpatients, aged 25-33 years, participated in the study; 3 were males and 3 females. Mean weight was 60 kg for the women and 70 for the men; all subjects were within 10% of their ideal body weight as determined by Metropolitan Life Insurance Company tables. […] Subjects were asked to take meals rich in carbohydrate content (about 300 g/day) for 3 days before beginning the study. On 5 separate days, each subject fasted from 8 p.m. until 9 the next morning and then received a load of 0, 6, 12.5, 25 or 50 g of glucose (caffeine-free glucola) dissolved in water in a total volume of 100 ml; the order of doses was randomized. Venous blood samples were drawn from the antecubital vein through an indwelling catheter at 0, 60 and 120 min for all doses and additionally at 30 and 180 min for the 12.5, 25 and 50 g doses. Blood was collected in heparanized tubes; after centrifugation plasma was stored at -20° C. until analyzed. […] Glucose was analyzed spectrophotometrically after reaction with O-toluidine in hot acidic acid (Sigma Bulletin #635;15). Insulin was measured using a commercial radioimmunoassay kit by a double antibody method (Bio-RIA, Louisville, Ky.). Plasma tryptophan was measured fluorometrically on 20 μl plasma aliquots by the method of Denckla and Dewey, J. Lab. Clin. Med. 69: 160-169, 1967, as modified by Lehman, Scand. J. Clin. Lab. Invest. 28: 49-55, 1971. Branched-chain amino acids and aromatic amino acids were measured in 500 μl aliquots of plasma, deproteinized with sulfosalicylic acid, using a Beckman amino acid analyzer (Beckman Instruments, Palo Alto, Calif., Model 119C).
(§3) Data, given as means ±SE errors, were analyzed by two-way analysis of variance; factors compared were dose and time. The Scheffe test was employed to test the statistical significance of differences; p<0.05 was considered significant. Areas under the curves were evaluated by the method of trapezoid approximation. Student tests for paired data were used to evaluate the significance of changes in individual amino acids. Amino acid concentrations after treatments for each subject were also expressed as a percentage of that day's pretreatment levels; mean percent changes were then calculated for each treatment and time interval.

clinical = conditions: in vivo
Protocol: as §1
as §2, with “Venous blood samples were drawn from the antecubital vein through an indwelling catheter at 0, 60 and 120 min for all doses and additionally at 30 and 180 min for the 12.5, 25 and 50 g doses.” left out, “Clin. Med. 69: 160-169, 1967, as modified by Lehman, Scand. J. Clin. Lab. Invest. 28: 49-55, 1971.” left out
Data, given as means ±SE errors, were analyzed by two-way analysis of variance; factors compared were dose and time. […] Areas under the curves were evaluated by the method of trapezoid approximation. […] Amino acid concentrations after treatments for each subject were also expressed as a percentage of that day's pretreatment levels; mean percent changes were then calculated for each treatment and time interval.

[2] = Plasma amino acid levels after glucose ingestion (Example I, Table 1); type: in vivo, human
Protocol: as §1, §2, §3
Sum of the LNAA: total concentration of leucine, isoleucine, valine,
the sum of the LNAA, measured 0, 60 and 120 min after 6 nonobese, fasting
subjects ingested 0, 6, 12.5, 25 or 50 g of glucose. All plasma amino
acids, except tryptophan, were measured on a Beckman amino acid analyzer.
Tryptophan was measured by the method of Denckla and Dewey. Data are
expressed as means ± S.E.M.

Mean plasma glucose concentration (clinical; human): 83±2.2 mg %
concentration at 0.5 h (clinical; human, po, Mean plasma glucose concentration): 1050 ± 86 µg/mL
Time for plasma glucose to return to baseline (clinical): 60 to 120 min
Structure (SMILES): O=C[C@H](O)[C@@H](O)[C@H](O)[C@H](O)CO [Glucose, glucose]
Elevation in insulin, 50-g vs 25-g dose ([1]; 50 g vs 25 g glucose): greater elevation in insulin than the 25-g dose in 4 of the 6 subjects
Insulin levels ([1]; 30 min after 12.5, 25 or 50 g of glucose): significantly elevated
Mean insulin concentration ([1]; before ingestion (baseline)): 9±0.9 μU/ml
Mean insulin concentration ([1]; glucose 12.5 g, 30 min): 21.3±3.8 μU/ml
Mean insulin concentration ([1]; glucose 25 g, 30 min): 44±5.0 μU/ml
Mean insulin concentration ([1]; glucose 50 g, 30 min): 58±6.9 μU/ml
Absolute leucine concentrations ([2]; 6-50 g glucose): decreased significantly after 6-50 g
LNAA concentrations, some subjects ([2]; 6 g of glucose): transiently decreased LNAA concentrations
All other amino acids (absolute concentrations) ([2]; 12.5-50 g glucose): decreased significantly after 12.5-50 g
Relationship between rise in plasma insulin and fall in LNAA (areas under the curve) ([2]; 12.5-50 g glucose, subjects 2 and 4, not robust for other subjects): clear inverse linear relationship
Decrease of plasma LNAA vs 0 and 6 g doses ([2]; 25 and 50 g, 60 and 120 min, P<0.05): significantly greater than those following the 0 and 6 g doses
Decrease of branched-chain amino acids ([2]; 50 g glucose, 120 min): 35-41%
Decrease of methionine ([2]; 50 g glucose, 120 min): 31%
Decrease of phenylalanine and tyrosine ([2]; 50 g glucose, 120 min): 29-31%
Decrease of tryptophan ([2]; 50 g glucose, 120 min): 23%
Percent reduction in plasma LNAA, 50-g vs 25-g dose ([2]; 50 g vs 25 g glucose): not consistently associated with a greater percent reduction in plasma LNAA
Absolute concentrations of amino acids, 50-g vs 25-g dose ([2]; 50 g vs 25 g glucose, 120 min, zero-time LNAA also lower): lower absolute concentrations of the amino acids than the 25-g dose after 120 min
Plasma LNAA concentrations (percent of pre-treatment) ([2]; 60 and 120 min): dose-related depression of plasma LNAA concentrations
Correlation (r) of glucose dose with mean percent decrease in LNAA ([2]; 120 min, P<0.01): 0.80
Decrease of branched-chain amino acids ([2]; after 50 g of glucose): 35-41%
Fall of plasma tyrosine concentrations ([2]; after 50 g of glucose): 23%
Ratio of plasma tyrosine to other plasma LNAA ([2]; after 50 g of glucose): increased significantly
Absolute isoleucine concentrations ([2]; after all treatments (0-50 g glucose)): decreased significantly with time after all treatments
Tyrosine/LNAA ratio ([2]; any glucose dose): did not change significantly
Plasma Iso level ([2]; glucose 6 g, 0 min): 60 ± 7 nmol/mL
Plasma LNAA (sum) ([2]; glucose 6 g, 0 min): 522 ± 47 nmol/mL
Plasma Leu level ([2]; glucose 6 g, 0 min): 113 ± 11 nmol/mL
Plasma Met level ([2]; glucose 6 g, 0 min): 24 ± 4 nmol/mL
Plasma Phe level ([2]; glucose 6 g, 0 min): 50 ± 3 nmol/mL
Plasma Trp level ([2]; glucose 6 g, 0 min): 46 ± 4 nmol/mL
Plasma Tyr level ([2]; glucose 6 g, 0 min): 57 ± 8 nmol/mL
Plasma Val level ([2]; glucose 6 g, 0 min): 220 ± 19 nmol/mL
Trp/LNAA ([2]; glucose 6 g, 0 min): .088
Plasma Iso level ([2]; glucose 6 g, 60 min): 51 ± 4 nmol/mL
Plasma Leu level ([2]; glucose 6 g, 60 min): 100 ± 12 nmol/mL
Plasma Met level ([2]; glucose 6 g, 60 min): 21 ± 3 nmol/mL
Plasma Phe level ([2]; glucose 6 g, 60 min): 46 ± 2 nmol/mL
Plasma Trp level ([2]; glucose 6 g, 60 min): 43 ± 4 nmol/mL
Plasma Tyr level ([2]; glucose 6 g, 60 min): 51 ± 7 nmol/mL
Plasma Val level ([2]; glucose 6 g, 60 min): 201 ± 15 nmol/mL
Trp/LNAA ([2]; glucose 6 g, 60 min): .092
Plasma Iso level ([2]; glucose 6 g, 120 min): 51 ± 5 nmol/mL
Plasma LNAA (sum) ([2]; glucose 6 g, 120 min): 471 ± 37 nmol/mL
Plasma Leu level ([2]; glucose 6 g, 120 min): 101 ± 9 nmol/mL
Plasma Met level ([2]; glucose 6 g, 120 min): 22 ± 3 nmol/mL
Plasma Phe level ([2]; glucose 6 g, 120 min): 47 ± 3 nmol/mL
Plasma Trp level ([2]; glucose 6 g, 120 min): 41 ± 4 nmol/mL
Plasma Tyr level ([2]; glucose 6 g, 120 min): 50 ± 6 nmol/mL
Plasma Val level ([2]; glucose 6 g, 120 min): 200 ± 16 nmol/mL
Trp/LNAA ([2]; glucose 6 g, 120 min): .086
Plasma Iso level ([2]; glucose 12.5 g, 0 min): 65 ± 5 nmol/mL
Plasma LNAA (sum) ([2]; glucose 12.5 g, 0 min): 574 ± 15 nmol/mL
Plasma Leu level ([2]; glucose 12.5 g, 0 min): 117 ± 10 nmol/mL
Plasma Met level ([2]; glucose 12.5 g, 0 min): 27 ± 2 nmol/mL
Plasma Phe level ([2]; glucose 12.5 g, 0 min): 54 ± 4 nmol/mL
Plasma Trp level ([2]; glucose 12.5 g, 0 min): 45 ± 2 nmol/mL
Plasma Tyr level ([2]; glucose 12.5 g, 0 min): 58 ± 4 nmol/mL
Plasma Val level ([2]; glucose 12.5 g, 0 min): 255 ± 47 nmol/mL
Trp/LNAA ([2]; glucose 12.5 g, 0 min): .079
Plasma Iso level ([2]; glucose 12.5 g, 60 min): 53 ± 4 nmol/mL
Plasma LNAA (sum) ([2]; glucose 12.5 g, 60 min): 501 ± 66 nmol/mL
Plasma Leu level ([2]; glucose 12.5 g, 60 min): 96 ± 10 nmol/mL
Plasma Met level ([2]; glucose 12.5 g, 60 min): 25 ± 1 nmol/mL
Plasma Phe level ([2]; glucose 12.5 g, 60 min): 50 ± 3 nmol/mL
Plasma Trp level ([2]; glucose 12.5 g, 60 min): 40 ± 1 nmol/mL
Plasma Tyr level ([2]; glucose 12.5 g, 60 min): 52 ± 3 nmol/mL
Plasma Val level ([2]; glucose 12.5 g, 60 min): 226 ± 48 nmol/mL
Trp/LNAA ([2]; glucose 12.5 g, 60 min): .080
